Assay results taken from patent publication US10752603B2, “Purification of oxydiphthalic anhydrides” (SABIC Global Technologies, B.V., priority 2018, dated 2020).
Entries after “also recorded” stand apart in the source; their conditions may differ.

Test: Color stability of ODPA after heat treatment (220 to 225° C., about 8 hours)
Type: physicochemical
Conditions: 220 to 225° C. for about 8 hours, visual observation
Method: The color stability of the ODPA after subjecting the ODPA to heat treatment was also examined. The heat stability testing was performed on various ODPA samples as described in Table 7. The samples were tested using a 10 wt % solution of each sample in DMF and APHA values were recorded using a Macbeth colorimeter Each sample was heat-treated by exposing the sample to a temperature of 220 to 225° C. for about 8 hours. The samples were monitored for color changes during the heat exposure duration. Visual observations are recorded in Table 7, as well as the measured APHA color values.

Compound: O=C1OC(=O)c2cc(Oc3ccc4c(c3)C(=O)OC4=O)ccc21 [Example 74, reference compound]
- Qualitative color observations after exposure to heat: no detectable color change; also recorded: No change observed
